The target of assay [1] is T1, Amine oxidase [flavin-containing] B (Homo sapiens, UniProt P27338).
T1 sequence (P27338 whole entry): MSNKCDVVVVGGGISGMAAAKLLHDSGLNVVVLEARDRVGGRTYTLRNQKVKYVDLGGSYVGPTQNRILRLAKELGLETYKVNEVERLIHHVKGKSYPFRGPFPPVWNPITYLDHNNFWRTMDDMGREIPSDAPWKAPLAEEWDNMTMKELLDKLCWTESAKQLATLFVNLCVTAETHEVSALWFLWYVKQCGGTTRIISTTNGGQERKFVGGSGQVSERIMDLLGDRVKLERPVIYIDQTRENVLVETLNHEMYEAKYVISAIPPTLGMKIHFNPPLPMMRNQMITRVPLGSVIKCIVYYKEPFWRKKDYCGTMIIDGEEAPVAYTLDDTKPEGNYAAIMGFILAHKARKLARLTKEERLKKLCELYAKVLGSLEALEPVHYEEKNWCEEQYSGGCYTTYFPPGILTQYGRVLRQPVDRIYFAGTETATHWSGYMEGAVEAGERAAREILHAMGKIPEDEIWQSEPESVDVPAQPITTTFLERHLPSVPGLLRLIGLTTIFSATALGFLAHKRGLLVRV
Briefly: biochemical.
Description: Inhibition of human recombinant MAO-B expressed in baculovirus infected BTI insect cells using luminogenic MAO substrate incubated for 1 hr by luciferin-based luminescence assay

In assay [2] the target is T2, Amine oxidase [flavin-containing] A (Homo sapiens, UniProt P21397).
T2 sequence (P21397 whole entry): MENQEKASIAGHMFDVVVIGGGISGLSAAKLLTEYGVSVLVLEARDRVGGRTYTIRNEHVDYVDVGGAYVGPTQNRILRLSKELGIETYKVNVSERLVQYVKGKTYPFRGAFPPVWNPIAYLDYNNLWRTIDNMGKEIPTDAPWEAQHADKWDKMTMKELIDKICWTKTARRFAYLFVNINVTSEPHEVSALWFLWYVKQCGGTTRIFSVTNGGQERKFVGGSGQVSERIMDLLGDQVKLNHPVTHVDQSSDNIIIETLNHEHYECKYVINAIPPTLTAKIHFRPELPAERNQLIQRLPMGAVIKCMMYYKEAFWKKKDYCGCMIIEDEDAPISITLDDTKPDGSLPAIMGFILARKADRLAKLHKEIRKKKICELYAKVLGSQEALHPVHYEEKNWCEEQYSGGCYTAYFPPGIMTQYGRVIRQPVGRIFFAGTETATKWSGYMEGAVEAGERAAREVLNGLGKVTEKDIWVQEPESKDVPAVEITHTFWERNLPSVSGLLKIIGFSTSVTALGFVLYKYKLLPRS
Briefly: biochemical.
Description: Inhibition of human recombinant MAO-A expressed in baculovirus infected BTI insect cells using luminogenic MAO substrate incubated for 1 hr by luciferin-based luminescence assay

Assay [3] concerns MV4-11. Briefly: Antiproliferative activity against human MV4-11 cells assessed as inhibition of cell growth incubated for 240 hrs by MTS assay. Format: functional, cell-based. To be noted: MV4-11, 240 h. (In general: Formazan colour is commonly taken as a measure of viable cells.)
The target of assay [4] is T3, Lysine-specific histone demethylase 2 (Homo sapiens, UniProt Q8NB78).
T3 sequence (Q8NB78 whole entry): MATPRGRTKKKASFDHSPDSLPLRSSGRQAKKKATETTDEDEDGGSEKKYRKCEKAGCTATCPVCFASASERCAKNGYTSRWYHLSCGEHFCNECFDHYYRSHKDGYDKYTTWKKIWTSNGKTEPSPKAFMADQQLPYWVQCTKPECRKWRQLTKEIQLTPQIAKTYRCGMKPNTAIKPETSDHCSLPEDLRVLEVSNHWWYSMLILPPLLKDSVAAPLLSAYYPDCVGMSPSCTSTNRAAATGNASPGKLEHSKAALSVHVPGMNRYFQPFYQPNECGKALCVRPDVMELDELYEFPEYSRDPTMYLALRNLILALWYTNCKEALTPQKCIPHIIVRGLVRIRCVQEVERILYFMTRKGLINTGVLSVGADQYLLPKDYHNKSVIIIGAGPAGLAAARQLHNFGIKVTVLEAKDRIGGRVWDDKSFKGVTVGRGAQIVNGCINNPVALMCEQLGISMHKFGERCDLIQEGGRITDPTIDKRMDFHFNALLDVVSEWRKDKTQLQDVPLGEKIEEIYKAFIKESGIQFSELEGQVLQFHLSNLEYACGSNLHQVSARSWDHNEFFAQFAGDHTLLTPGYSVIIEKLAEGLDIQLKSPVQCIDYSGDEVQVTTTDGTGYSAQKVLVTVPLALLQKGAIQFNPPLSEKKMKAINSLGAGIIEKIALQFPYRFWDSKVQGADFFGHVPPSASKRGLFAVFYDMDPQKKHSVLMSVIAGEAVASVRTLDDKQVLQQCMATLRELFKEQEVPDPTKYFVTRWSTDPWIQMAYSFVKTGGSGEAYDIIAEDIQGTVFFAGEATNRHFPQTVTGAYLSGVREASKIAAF
Briefly: Inhibition of human LSD2 using H3K4Me2 peptide as substrate incubated for 60 min by peroxidase-coupled method.

The next assay has as its system RPMI-8226. Put plainly: Antiproliferative activity against human RPMI-8226 cells assessed as inhibition of cell growth incubated for 240 hrs by MTS assay. Format: functional, cell-based. The settings on record: RPMI-8226, 240 h.
Assay [5] has as its target T3, Lysine-specific histone demethylase 2. Briefly: Inhibition of human LSD2.
The subject of assay [6] is MV4-11. Briefly: Activation of CD86 expression in human MV4-11 cells incubated for 24 hrs by qRT-PCR analysis. In kind it is functional, cell-based. The settings on record: MV4-11, 24 h. Background: Quantitative PCR measures a nucleic acid by following its amplification.
Assay [7] has as its target T2, Amine oxidase [flavin-containing] A. Put plainly: Inhibition of human MAOA.
Assay [8] has as its system MV4-11. Briefly: Induction of differentiation of human MV4-11 cells assessed as morphological changes by measuring segmented nucleus at 5 uM incubated for 240 hrs by Wright-Giemsa staining based microscopy. Format: functional, cell-based.
In assay [9] the target is T1, Amine oxidase [flavin-containing] B. Briefly: Inhibition of human MAOB.
For assay [10], the system named is MV4-11. Put plainly: Induction of differentiation of human MV4-11 cells assessed as morphological changes by measuring reduction in nuclear to cytoplasmic ratio at 5 uM incubated for 240 hrs by Wright-Giemsa staining based microscopy. In kind it is functional, cell-based.
Assay [11] concerns the target Lysine-specific histone demethylase 1A (Homo sapiens) (UniProt O60341). The settings on record: dose 300.0 nM, time 1.0 hrs.
In assay [12] the target is T3, Lysine-specific histone demethylase 2. Briefly: Inhibition of recombinant human full length LSD2 using biotinylated H3K4Me2 peptide as substrate by TR-FRET assay.
Assay [13] can be described thus: Upregulation of CD86 expression in human MV4-11 cells assessed as fold change in CD86 expression at IC50 incubated for 24 hrs by qRT-PCR analysis relative to control. In kind it is functional.

Active and inactive are the calls of the source. The rule behind the calls is not given here.

Broadly, the IC50 is the concentration needed to halve the response being measured. Take `COc1cccc(S(=O)(=O)N2CCc3cc(C4CC4NCC4CCNCC4)ccc32)c1` (trans isomer): in assay [1], the IC50 is above 100 µM.

For the molecule `O=C(N[C@@H](CCCCNC1CC1c1ccccc1)C(=O)NCc1ccc(Cl)cc1)c1ccc(-c2ccccc2)cc1` (some centres not stated), the IC50 in assay [1] and in assay [2] was above 100 µM throughout.

Turning to `O=S(=O)(C1CCCCC1)N1CCc2cc(C3CC3NCC3CCNCC3)ccc21` (configuration not stated), the IC50 in assay [1] and in assay [2] was above 100 µM in each case.

With `CC1(CNC2CC2c2ccc3c(c2)CCN3S(=O)(=O)c2ccccc2)CCNCC1` (trans isomer), the figures for the IC50 in [1] and in [2] were above 100 µM and 100 µM, respectively.

Take `CCS(=O)(=O)N1CCc2cc(C3CC3NCC3CCNCC3)ccc21` (trans isomer): the values for the IC50 (with MV4-11 [3]; in assay [1]; in assay [2]) were 2520 nM, above 100 µM and above 100 µM, respectively.

On to `CS(=O)(=O)N1CCc2cc(C3CC3NCC3CCNCC3)ccc21` (configuration not stated), for which the IC50 was 2390 nM with MV4-11 [3], above 100 µM in [1] and above 100 µM in [2].

`O=S(=O)(c1ccc(-c2ccccc2)cc1)N1CCc2cc(C3CC3NCC3CCNCC3)ccc21` (trans isomer) displayed an IC50 in [2] above 100 µM.

As for `N[C@H]1CC[C@H](CNC2CC2c2ccc3c(c2)CCN3S(=O)(=O)c2ccccc2)CC1` (some centres not stated), the IC50 in [2] is 96.3 µM.

The term Ki denotes the equilibrium dissociation constant of an inhibitor or competing ligand from its target. In turn, `N[C@@H]1C[C@H]1c1ccc(NC(=O)c2ccccc2)cc1` showed a Ki in assay [4] of 61 µM.

Turning to `O=S(=O)(c1ccccc1)N1CCc2cc(C3CC3NC3CC4(CCNCC4)C3)ccc21` (trans isomer), the concentration for half-maximal inhibition (IC50) in assay [1] and in assay [2] was above 100 µM each time.

Take `CCCC(=O)N1CCc2cc(C3CC3NCC3CCNCC3)ccc21` (configuration not stated): the IC50 in the assay on MV4-11 [3] was 18800 nM; in assay [1], above 100 µM; in assay [2] it was above 100 µM.

For `O=C(Cc1ccccc1)N1CCc2cc(C3CC3NCC3CCNCC3)ccc21` (trans isomer), the half-maximal inhibitory concentration (IC50) in [1] and in [2] was above 100 µM in each case.

In the case of `CCC(=O)N1CCc2cc(C3CC3NCC3CCNCC3)ccc21` (trans isomer), the IC50 in the assay on MV4-11 [3] is 7660 nM; in [1], above 100 µM; in assay [2] it was above 100 µM.

Consider `O=S(=O)(c1ccccc1)N1CCc2cc(C3CC3NCCC3CCNCC3)ccc21` (trans isomer), for which the IC50 in the assay with MV4-11 [3] was 1210 nM; in [1], above 100 µM; with RPMI-8226 it was above 20 µM; in assay [2], above 100 µM.

`O=S(=O)(N1CCc2cc(C3CC3NCC3CCNCC3)ccc21)C(F)(F)F` (trans isomer) yielded an IC50 in [2] of 8640 µM.

For the molecule `O=S(=O)(c1ccccc1)N1CCc2cc(C3CC3NCC3CCN(Cc4ccccc4)CC3)ccc21` (trans isomer), the IC50 in assay [1] is above 100 µM.

Turning to `O=C(c1ccccc1)N1CCc2cc(C3CC3NCC3CCNCC3)ccc21` (trans isomer), the IC50 is 4140 nM with MV4-11 [3] and above 100 µM in assay [2].

`CC(C)(C)C(=O)N1CCc2cc(C3CC3NCC3CCNCC3)ccc21` (trans isomer): the figures for the IC50 (with MV4-11 [3]; in the assay with RPMI-8226; in [2]) were 1230 nM, above 20 µM and above 100 µM, respectively.

As usually defined, the EC50 is the midpoint of the concentration-response curve. As to `O=C(O)c1ccc(CN2CCC(CN[C@@H]3C[C@H]3c3ccccc3)CC2)cc1` [GSK2879552], the IC50 in [5] is above 100 µM; in the assay on MV4-11 [3], 1190 nM; in assay [7] it was above 100 µM; in assay [9], above 100 µM; in assay [1] it was above 100 µM; in assay [12], above 100 µM. Also, the IC50 is above 20 µM in the assay on RPMI-8226 and above 100 µM in assay [2]. In the assay on MV4-11 [6], the response was half-maximal at 23 nM (EC50). For the same molecule, the result in the assay on MV4-11 [8] and in the assay with MV4-11 [10] was Active. Moreover, the inhibition entry in [11] was “Active”. For the same molecule, in assay [13], the “fold change (FC)” value was determined as 10.15.

Regarding `CCCCC(=O)N1CCc2cc(C3CC3NCC3CCNCC3)ccc21` (configuration not stated), the IC50 in assay [1] and in [2] was above 100 µM in each case.
